Source: US20130041036A1, “FERULIC ACID AS FEED SUPPLEMENT IN BEEF CATTLE TO PROMOTE ANIMAL GROWTH AND IMPROVE THE MEAT QUALITY OF THE CARCASS AND THE MEAT” (BIOKAB, S.A. DE C.V., priority 2011, published 2013)
Entries after “also recorded” stand apart in the source; their conditions may differ. Marks after values point to notes of the source that are not given here.

Key:
feedlot steers = details: steers supplemented with ractopamine compared to the control; cited from earlier work
beef cattle = experiment: Feedlot performance and carcass quality of beef cattle; type: in vivo, beef cattle of commercial breeds; details: for CCW: cold carcass weight: carcass 24 hr at 0° C.; for PH45: pH at 45 min postmortem: Longissimus dorsi
Text: In this study, all animals received the same prophylactic management, and all were subsequently assigned randomly to one of the following four treatments (25 animals per treatment, divided into pens of 5 experimental units per pen):
Definition of the 4 Treatments
Treatment 1 (Control): control animals (receiving only the basal diet without supplementation of the additive).
Treatment 2 (Ferulic Acid for 30 days=FA30): Animals receiving the basal diet supplemented with 240 ppm of ferulic acid during the last 30 days of the fattening period.
Treatment 3 (Ferulic Acid for 60 days=FA60): Animals receiving the basal diet supplemented with 240 ppm of ferulic acid during the last 60 days of the fattening period.
Treatment 4 (Zilmax commercial Zilpaterp; =ZX): Animals receiving the basal diet and supplemented with 6 ppm hydrochloride zilpaterol during the last 30 days of the fattening period.
During the experimental phase, all animals received a feeding ration consisting of 20% fodder and 80% concentrate. The crop was corn stover, while the concentrate consisted of different proportions of rolled corn grain, soybean meal, canola meal, distillery grains, and molasses. The ration was provided twice a day, and there was free access to the food and drinking water.
Initial and final live weight was recorded in the productive performance trial. The performance test lasted 60 days. Daily feed intake was evaluated, weight was recorded at the beginning and end of experimental period, in order to estimate the average daily gain and feed conversion.
Before concluding the performance test, 2 animals were randomly selected per pen (10 per treatment) for humanitarian slaughter. The animals were sacrificed following the standard procedures of the official Mexican standards in the municipal slaughterhouse of Guadalajara, Jalisco. Animal live weight was recorded before slaughter.
During the slaughter process, the pH of the carcass at 45 min postmortem in the Longissimus dorsi muscle (LD) was measured and the weight of the hot carcass was recorded. The carcasses were refrigerated at 0° C. for 24 hr. After this, the final pH was measured and cold carcass weight recorded, and the classification of carcasses was carried out, recording the Rib eye area (REA) in square inches, back fat thickness (BFT) in mm, and the marbling in the 12th intercostal space of the LD; the skeletal maturity and conformation of the carcass was also evaluated (10 carcasses per treatment). The assessment of quality of the carcass was made following the procedures described by the US Department of Agriculture (USDA, 2000).
(§1) All data for response variables of the quality of carcass and meat were analyzed under a completely randomized design, with a one-way ANOVA, taking the experimental treatments as a fixed effect. For carcass BFT and REA characteristics the hot carcass weight was used as a covariable. Regarding the sensory attributes, the model also included the effect of panelist as the repeated measure. The variables of the shelf life study were analyzed as a completely randomized design with factorial arrangement, factor A being the treatment with 4 levels, and factor B, the storage time with 5 levels. When there were statistical differences (P<0.05) between treatments, average comparisons were performed by the multiple range test of Tukey. All data was processed in the NCSS statistical package (NCSS, 2001).

Longissimus dorsi muscle [1] = experiment: Chemical and physicochemical quality of Longissimus dorsi muscle from supplemented cattle; type: in vivo, beef cattle of commercial breeds; details: for SF: shear force: Warner-Bratzler; for L* value: fresh meat brightness; for a* value: fresh meat redness; for b* value: fresh meat yellowness; for pH: meat
Method: (§2) Subsequent to the carcass classification the rib eye cut (LD muscle) was obtained of the left side of each selected carcass. Meat samples were identified, vacuum packed, frozen at -18° C., and then shipped under refrigeration by air courier to the Centro de Investigación en Alimentacion y Desarrollo A.C. (CIAD) facilities at Hermosillo, Sonora, to perform quality analysis of the meat: Chemical analysis (moisture and fat content), physicochemical (objective color parameters L*, which measures the brightness of the meat, a* value, which measures the redness, and b* value which measures the tendency towards yellowness, and hue-angle, Warner-Bratzler shear force, water retention capacity and pH). A sensory test was done by a trained panel consisting of 10 members using a descriptive test with a semi-structured 10 cm scale, where zero indicates a […] of the attribute and a 10 indicates a favorable rating (e.g. tenderness, zero indicates extremely hard and 10 extremely tender). The sensory attributes that were measured: total color and overall appearance of raw meat, flavor, odor, color, tenderness, fat perception, juiciness, and perception of connective tissue in cooked meat. […] To measure cooking loss, the meat sample was weighed before and immediately after reaching the final cooking temperature, which was expressed in percentage. All data for response variables of the quality of carcass and meat were analyzed under a completely randomized design, with a one-way ANOVA, taking the experimental treatments as a fixed effect. For carcass BFT and REA characteristics the hot carcass weight was used as a covariable. Regarding the sensory attributes, the model also included the effect of panelist as the repeated measure. The variables of the shelf life study were analyzed as a completely randomized design with factorial arrangement, factor A being the treatment with 4 levels, and factor B, the storage time with 5 levels. When there were statistical differences (P<0.05) between treatments, average comparisons were performed by the multiple range test of Tukey.

Longissimus dorsi muscle [2] = experiment: Sensory test of Longissimus dorsi meat by trained panel; type: in vivo, beef cattle of commercial breeds; details: for Tenderness / Connective tissue perception / Fat perception / Flavor intensity / Juiciness / Odor intensity: cooked meat; for Tenderness: 10 cm scale, zero extremely hard, 10 extremely tender; for Connective tissue perception / Fat perception / Flavor intensity / Juiciness / Odor intensity / Appearance / Overall Color: semi-structured 10 cm scale; for Appearance / Overall Color: raw meat
Method: as §2

Longissimus dorsi muscle [3] = experiment: Shelf life study of refrigerated meat (colour, TBARS); type: in vivo, beef cattle of commercial breeds; details: for TBA values (lipid oxidation) during shelf life: FIG. 2
Method: In order to estimate the antioxidant effect of ferulic acid, 5 chops of the meat samples were taken (5 experimental units) of the respective treatments, which were packed with traditional packaging (film wrapped) and subjected to a refrigeration process from 4 and 5° C. for 10 days in a room equipped for this purpose. During the shelf life (Day 1, 3, 5, 7 and 9 of storage) the objective color parameters mentioned above, as well as determination of substances reactive to thiobarbituric acid (TBARS) were evaluated according to the methodology described by Pfalzgraf et al. (1995). TBA values were expressed as substances reactive to 2-thiobarbituric acid (TBARS) in mg malonaldehyde/kg sample.
as §1

pigs = pigs supplemented with 50 ppm of ferulic acid; cited from earlier work
[4] = 240 ppm ferulic acid (FA30) or 6 ppm zilpaterol hydrochloride (ZX) in diet, last 30 days of fattening
[5] = 240 ppm ferulic acid (FA30) or 6 ppm zilpaterol hydrochloride (ZX), last 30 days of fattening
[6] = FA30 240 ppm or ZX 6 ppm, last 30 days of fattening
[7] = 240 ppm ferulic acid in diet, last 60 days of fattening (FA60)
[8] = 240 ppm ferulic acid, last 60 days of fattening (FA60)
[9] = 240 ppm ferulic acid, last 60 days (FA60)
[10] = FA30 240 ppm or ZX 6 ppm, last 30 days of fattening, listed as FA30

Structure (SMILES): CC(CCc1ccc(O)cc1)NCC(O)c1ccc(O)cc1 (stereo not drawn) [ractopamine]
- shear force of meat (feedlot steers): significant increase in the shear force

Structure (SMILES): CC(C)N[C@@H]1CCn2c(=O)[nH]c3cccc(c32)[C@H]1O.Cl [ZX, zilpaterol hydrochloride, reference compound]
- CY: carcass yield (beef cattle; [4]): 61.53^b %
- FW: final weight (beef cattle; [4]): 579.4 kg
- HCW: hot carcass weight (beef cattle; [4]): 356.34 kg
- CCW: cold carcass weight (beef cattle; [4]): 350.62 kg
- BFT: back fat thickness (beef cattle; [5]): 3.05 mm
- PH24: pH at 24 h postmortem (beef cattle; [5]): 5.63
- REA: rib eye area (beef cattle; [5]): 15.41 Inch^2
- PH45: pH at 45 min postmortem (beef cattle; [5]): 6.17^a
- Cooking loss (Longissimus dorsi muscle [1]; [5]): 19.20^b %
- Fat content (Longissimus dorsi muscle [1]; [5]): 2.36%
- Hue angle (Longissimus dorsi muscle [1]; [5]): 36.05
- Moisture (Longissimus dorsi muscle [1]; [5]): 73.02%
- WHC: water holding capacity (Longissimus dorsi muscle [1]; [5]): 25.13%
- SF: shear force (Longissimus dorsi muscle [1]; [5]): 10.37^b kg F
- L* value (Longissimus dorsi muscle [1]; [5]): 35.34
- a* value (Longissimus dorsi muscle [1]; [5]): 16.39
- b* value (Longissimus dorsi muscle [1]; [5]): 11.95
- pH (Longissimus dorsi muscle [1]; [5]): 5.57
- Tenderness (Longissimus dorsi muscle [2]; [6]): 6.85^a
- Connective tissue perception (Longissimus dorsi muscle [2]; [6]): 1.42
- Fat perception (Longissimus dorsi muscle [2]; [6]): 3.34
- Flavor intensity (Longissimus dorsi muscle [2]; [6]): 6.56^a
- Juiciness (Longissimus dorsi muscle [2]; [6]): 6.00^a
- Odor intensity (Longissimus dorsi muscle [2]; [6]): 7.89
- Appearance (Longissimus dorsi muscle [2]; [6]): 7.17
- Overall Color (Longissimus dorsi muscle [2]; [6]): 7.41

Structure (SMILES): COc1cc(/C=C/C(=O)O)ccc1O [ferulic acid, trans-4-hydroxy-3-methoxy cinnamic acid]
- FW: final weight (beef cattle; [4]): 553.5 kg
- HCW: hot carcass weight (beef cattle; [4]): 336.42 kg
- CCW: cold carcass weight (beef cattle; [4]): 331.13 kg
- BFT: back fat thickness (beef cattle; [5]): 4.29 mm
- PH24: pH at 24 h postmortem (beef cattle; [5]): 5.63
- REA: rib eye area (beef cattle; [5]): 14.54 Inch^2
- CY: carcass yield (beef cattle; [7]): 59.85^ab %
- FW: final weight (beef cattle; [7]): 551.9 kg
- HCW: hot carcass weight (beef cattle; [7]): 330.42 kg
- CCW: cold carcass weight (beef cattle; [7]): 325.42 kg
- BFT: back fat thickness (beef cattle; [8]): 4.38 mm
- PH24: pH at 24 h postmortem (beef cattle; [8]): 5.61
- REA: rib eye area (beef cattle; [8]): 14.21 Inch^2
- PH45: pH at 45 min postmortem (beef cattle; [5]): 6.54^b
- PH45: pH at 45 min postmortem (beef cattle; [8]): 6.33^ab
- Cooking loss (Longissimus dorsi muscle [1]; [5]): 17.65^ab %
- Fat content (Longissimus dorsi muscle [1]; [5]): 2.13%
- Hue angle (Longissimus dorsi muscle [1]; [5]): 36.79
- Moisture (Longissimus dorsi muscle [1]; [5]): 73.10%
- WHC: water holding capacity (Longissimus dorsi muscle [1]; [5]): 25.73%
- Cooking loss (Longissimus dorsi muscle [1]; [8]): 19.65^b %
- Fat content (Longissimus dorsi muscle [1]; [8]): 2.52%
- Hue angle (Longissimus dorsi muscle [1]; [8]): 37.13
- Moisture (Longissimus dorsi muscle [1]; [8]): 73.41%
- WHC: water holding capacity (Longissimus dorsi muscle [1]; [8]): 25.44%
- SF: shear force (Longissimus dorsi muscle [1]; [5]): values significantly lower
- SF: shear force (Longissimus dorsi muscle [1]; 240 ppm ferulic acid (FA30) or 6 ppm zilpaterol hydrochloride (ZX), last 30 days of fattening, listed as FA30): 7.94^a kg F
- SF: shear force (Longissimus dorsi muscle [1]; [8]): 8.32^ab kg F
- L* value (Longissimus dorsi muscle [1]; [5]): 36.66
- L* value (Longissimus dorsi muscle [1]; [8]): 35.74
- a* value (Longissimus dorsi muscle [1]; [5]): 16.86
- a* value (Longissimus dorsi muscle [1]; [8]): 17.55
- b* value (Longissimus dorsi muscle [1]; [5]): 12.53
- b* value (Longissimus dorsi muscle [1]; [8]): 13.22
- pH (Longissimus dorsi muscle [1]; [5]): 5.54
- pH (Longissimus dorsi muscle [1]; [8]): 5.57
- Tenderness (Longissimus dorsi muscle [2]; [9]): 7.54^ab
- Tenderness (Longissimus dorsi muscle [2]; [6]): more tender
- Tenderness (Longissimus dorsi muscle [2]; [10]): 7.68^b
- Connective tissue perception (Longissimus dorsi muscle [2]; [9]): 1.50
- Fat perception (Longissimus dorsi muscle [2]; [9]): 3.62
- Flavor intensity (Longissimus dorsi muscle [2]; [9]): 7.32^ab
- Juiciness (Longissimus dorsi muscle [2]; [9]): 6.76^ab
- Odor intensity (Longissimus dorsi muscle [2]; [9]): 7.90
- Connective tissue perception (Longissimus dorsi muscle [2]; [6]): 1.57
- Fat perception (Longissimus dorsi muscle [2]; [6]): 3.22
- Flavor intensity (Longissimus dorsi muscle [2]; [6]): better flavored
- Juiciness (Longissimus dorsi muscle [2]; [6]): juicier
- Odor intensity (Longissimus dorsi muscle [2]; [6]): 8.05
- Flavor intensity (Longissimus dorsi muscle [2]; [10]): 7.73^b
- Juiciness (Longissimus dorsi muscle [2]; [10]): 7.09^b
- Appearance (Longissimus dorsi muscle [2]; [9]): 7.11
- Overall Color (Longissimus dorsi muscle [2]; [9]): 7.65
- Appearance (Longissimus dorsi muscle [2]; [6]): 7.41
- Overall Color (Longissimus dorsi muscle [2]; [6]): 7.51
- color parameter a* (redness) during shelf life (Longissimus dorsi muscle [3]; film wrapped meat at 4 and 5° C., days 1-9, 240 ppm ferulic acid last 30 days of fattening, FIG. 1, listed as FA30): delayed effect of the deterioration of the red color of the meat; also recorded: maintained the highest values of a* until day 7 of storage
- TBA values (lipid oxidation) during shelf life (Longissimus dorsi muscle [3]; film wrapped meat at 4 and 5° C., days 1-9, 240 ppm ferulic acid last 30 days of fattening): lower; also recorded: smaller increases in TBA values
- TBA values (lipid oxidation) during shelf life (Longissimus dorsi muscle [3]; film wrapped meat at 4 and 5° C., days 1-9, 240 ppm ferulic acid last 60 days of fattening): faster oxidation
- photographic pattern of changes of meat color during shelf life (Longissimus dorsi muscle [3]; refrigerated storage, 240 ppm ferulic acid last 30 days of fattening, FIG. 3): maintain the red meat color with less changes until day 7 of storage
- thickness of the dorsal fat (pigs): decrease in the thickness of the dorsal fat
